Like-named read-outs stand apart in the source and are kept apart here.
System: erythrocytes infected with 3D7 trophozoites
Format: cell-based, Plasmodium falciparum
Settings: 6 μM

## COc1ccc2c(c1)OC(O)(C(F)(F)C(F)(F)F)CC2=O (stereo not shown) [MMV007839]
Av 3hr
  Serine log2 ratio (+MMV007839/-MMV007839): 0.166
  Succinate log2 ratio (+MMV007839/-MMV007839): -0.2462
  Succinate semialdehyde log2 ratio (+MMV007839/-MMV007839): -0.7119
  TNVK log2 ratio (+MMV007839/-MMV007839): -1.745
  Threonine log2 ratio (+MMV007839/-MMV007839): 0.01502
  Tryptophan log2 ratio (+MMV007839/-MMV007839): -0.2359
  Tyrosine log2 ratio (+MMV007839/-MMV007839): -0.01653
  UDP log2 ratio (+MMV007839/-MMV007839): -0.7159
  UDP-N-acetyl-D-glucosamine log2 ratio (+MMV007839/-MMV007839): 0.05247
  UDP-glucose log2 ratio (+MMV007839/-MMV007839): -0.07837
  UMP log2 ratio (+MMV007839/-MMV007839): -0.2624
  Uracil log2 ratio (+MMV007839/-MMV007839): -0.6081
  Uric Acid log2 ratio (+MMV007839/-MMV007839): -0.1135
  VD log2 ratio (+MMV007839/-MMV007839): 1.073
  Valine log2 ratio (+MMV007839/-MMV007839): -0.194
  Xanthine log2 ratio (+MMV007839/-MMV007839): -0.464
  dADP log2 ratio (+MMV007839/-MMV007839): -1.193
  dATP log2 ratio (+MMV007839/-MMV007839): -0.03116
  dCDP log2 ratio (+MMV007839/-MMV007839): 0.3315
  dGMP log2 ratio (+MMV007839/-MMV007839): 0.1661
  dTMP log2 ratio (+MMV007839/-MMV007839): 0.1316
  dTTP log2 ratio (+MMV007839/-MMV007839): -0.08156
  dUMP log2 ratio (+MMV007839/-MMV007839): 1.365
  myo-Inositol log2 ratio (+MMV007839/-MMV007839): -0.258
  sn-Glycerol 3-phosphate log2 ratio (+MMV007839/-MMV007839): 1.559
  sn-glycero-3-Phospho-1-inositol log2 ratio (+MMV007839/-MMV007839): 0.1698
Av 3hr, medRt 15.0954
  Hexose-phosphate log2 ratio (+MMV007839/-MMV007839): -0.3219
Av 3hr, medRt 16.8944
  6-Phospho-D-gluconate log2 ratio (+MMV007839/-MMV007839): -0.6275
Av 3hr, medRt 17.0788
  Hexose-phosphate log2 ratio (+MMV007839/-MMV007839): -1.577
Av 3hr, medRt 17.4636
  6-Phospho-D-gluconate log2 ratio (+MMV007839/-MMV007839): -0.2282
Av 6hr
  1-3 (2-3)-diphopshateglycerate log2 ratio (+MMV007839/-MMV007839): 0.3636
  2-Hydroxyglutarate log2 ratio (+MMV007839/-MMV007839): -0.3824
  2-Ketoglutarate log2 ratio (+MMV007839/-MMV007839): -0.4713
  3-Phosho-D-glycerate log2 ratio (+MMV007839/-MMV007839): 0.02516
  3-Phospho-serine log2 ratio (+MMV007839/-MMV007839): -0.6364
  4-Aminobutanoate log2 ratio (+MMV007839/-MMV007839): 1.092
  5-Phosphoribosyl-1-pyrophosphate log2 ratio (+MMV007839/-MMV007839): 0.556
  ADP log2 ratio (+MMV007839/-MMV007839): -0.3027
  AMP log2 ratio (+MMV007839/-MMV007839): -0.04039
  ATLS log2 ratio (+MMV007839/-MMV007839): -0.1601
  ATP log2 ratio (+MMV007839/-MMV007839): -0.3608
  Acetyl-CoA log2 ratio (+MMV007839/-MMV007839): -0.9886
  Acetyl-L-alanine log2 ratio (+MMV007839/-MMV007839): -0.3969
  Adenine log2 ratio (+MMV007839/-MMV007839): -0.7079
  Arginine log2 ratio (+MMV007839/-MMV007839): 0.2024
  Asparagine log2 ratio (+MMV007839/-MMV007839): 0.205
  Aspartic Acid log2 ratio (+MMV007839/-MMV007839): -0.08675
  CDP log2 ratio (+MMV007839/-MMV007839): -0.2824
  CDP-ethanolamine log2 ratio (+MMV007839/-MMV007839): -0.09908
  CMP log2 ratio (+MMV007839/-MMV007839): 0.2839
  CTP log2 ratio (+MMV007839/-MMV007839): -0.5655
  Cholesteryl sulfate log2 ratio (+MMV007839/-MMV007839): -0.1903
  Citrate log2 ratio (+MMV007839/-MMV007839): -0.1627
  CoA log2 ratio (+MMV007839/-MMV007839): -0.6499
  Cyclic AMP log2 ratio (+MMV007839/-MMV007839): -1.349
  Cytidine log2 ratio (+MMV007839/-MMV007839): 0.1751
  D-Glucono-1-4-lactone log2 ratio (+MMV007839/-MMV007839): 2.219
  DALT log2 ratio (+MMV007839/-MMV007839): 0.7209
  DEVG log2 ratio (+MMV007839/-MMV007839): -0.06216
  DGLA log2 ratio (+MMV007839/-MMV007839): 0.8365
  DLS log2 ratio (+MMV007839/-MMV007839): -0.1236
  Deoxycytidine log2 ratio (+MMV007839/-MMV007839): 1.626
  Dihydroorotate log2 ratio (+MMV007839/-MMV007839): -1.004
  ESFG log2 ratio (+MMV007839/-MMV007839): 0.5044
  EVGG log2 ratio (+MMV007839/-MMV007839): -0.2203
  Erythrose 4-phosphate log2 ratio (+MMV007839/-MMV007839): -0.7036
  FAD log2 ratio (+MMV007839/-MMV007839): -0.616
  FMN log2 ratio (+MMV007839/-MMV007839): -0.6137
  Farnesyl diphosphate log2 ratio (+MMV007839/-MMV007839): -0.2783
  Folate log2 ratio (+MMV007839/-MMV007839): -0.4942
  Fructose-1-6-bisphosphate log2 ratio (+MMV007839/-MMV007839): 0.3974
  Fructose-6-Phosphate log2 ratio (+MMV007839/-MMV007839): -0.1081
  GDP log2 ratio (+MMV007839/-MMV007839): -0.8963
  GDP-mannose log2 ratio (+MMV007839/-MMV007839): -1.076
  GMP log2 ratio (+MMV007839/-MMV007839): -0.8795
  GTP log2 ratio (+MMV007839/-MMV007839): -0.6956
  Geranylgeranyl pyrophosphate log2 ratio (+MMV007839/-MMV007839): -0.7121
  Gluconate log2 ratio (+MMV007839/-MMV007839): -0.0152
  Glucose-6-Phosphate log2 ratio (+MMV007839/-MMV007839): -0.5083
  Glutamate log2 ratio (+MMV007839/-MMV007839): -0.02563
  Glutamine log2 ratio (+MMV007839/-MMV007839): 1.089
  Glutathione disulfide log2 ratio (+MMV007839/-MMV007839): -0.1925
  Glutathione log2 ratio (+MMV007839/-MMV007839): -0.4326
  Glyceraldehyde 3-phosphate log2 ratio (+MMV007839/-MMV007839): -1.148
  Glycerone phosphate log2 ratio (+MMV007839/-MMV007839): -0.3794
  HLD log2 ratio (+MMV007839/-MMV007839): 0.5581
  HVDD log2 ratio (+MMV007839/-MMV007839): 0.02571
  Histidine log2 ratio (+MMV007839/-MMV007839): 1.263
  Homoserine log2 ratio (+MMV007839/-MMV007839): 0.6347
  Hydroxy-L-proline log2 ratio (+MMV007839/-MMV007839): -0.1227
  Hypoxanthine log2 ratio (+MMV007839/-MMV007839): 0.2056
  IDP log2 ratio (+MMV007839/-MMV007839): 0.2522
  IMP log2 ratio (+MMV007839/-MMV007839): -0.2109
  Inosine log2 ratio (+MMV007839/-MMV007839): 0.5174
  Isoleucine log2 ratio (+MMV007839/-MMV007839): 0.1143
  LD log2 ratio (+MMV007839/-MMV007839): 0.1248
  Lactate log2 ratio (+MMV007839/-MMV007839): 2.505
  Leucine log2 ratio (+MMV007839/-MMV007839): 0.06585
  Lysine log2 ratio (+MMV007839/-MMV007839): 1.1316
  Malate log2 ratio (+MMV007839/-MMV007839): -0.236
  Mannitol log2 ratio (+MMV007839/-MMV007839): -0.1109
  Methionine log2 ratio (+MMV007839/-MMV007839): -0.2224
  Myristic acid log2 ratio (+MMV007839/-MMV007839): -0.7184
  N-Acetyl-glutamate log2 ratio (+MMV007839/-MMV007839): -1.091
  N-Carbamoyl-L-aspartate log2 ratio (+MMV007839/-MMV007839): -1.386
  NAD+ log2 ratio (+MMV007839/-MMV007839): 0.1336

Reference: PMC5298231, “The Malaria Parasite's Lactate Transporter PfFNT Is the Target of Antiplasmodial Compounds Identified in Whole Cell Phenotypic Screens” (PLoS Pathogens, 2017)
